In patent publication US20210106601A1, “MANGIFERIN AS A PROTECTIVE AGENT AGAINST MITOCHONDRIAL DNA DAMAGE AND SKIN-CARE COMPOSITIONS COMPRISING SAME” (priority 2018, published 2021):
≈ marks a conversion by molar mass, not a printed value. Where “and” joins values, the source holds several entries; their conditions need not be identical. Equal entries are not always repeated.

Tests used:
[1] = system: HDFn cells; assay: mtDNA damage after UV irradiation (1 kb real-time qPCR assay); assay type: cell-based, human; details: UV 2 SED
Description: 1,000 μg/ml solutions of mangiferin extract were prepared as outlined in Example 1 above. 3 ml of the mangiferin solution was added to a 45 mm diameter quartz glass petri dish. Quartz was chosen as it is known to permit both UVA and UVB rays to pass through. The quartz glass dish was then placed on top of a slightly smaller dish containing the cultured HDFn cells. The cells were then irradiated through the quartz glass petri dish, using either a Cleo Performance (iSOLde, Germany) or Aramid B (Cosmedico, Germany) lamp at 2 standard erythemal doses (SED). […]
Following irradiation, total DNA was extracted and mtDNA damage analysed using a 1 kb real-time qPCR assay. mtDNA damage is expressed as a Ct value (where a 1 Ct difference is equivalent to a 2-fold difference in damage), and is based on the observation that damaged mtDNA takes longer to be amplified via qPCR. To find the acellular UV transmission of extracts, the dish containing the diluted extract was placed on top of a spectroradiometer and the amount of UV which passes through the dish was measured. All statistical differences were determined using one-way ANOVA with Dunnett's test to compare to a control column (0.05*, P<0.01**, P<0.001***). […]

[2] = system: HDFn cells; assay: Cell viability assay (MTS cell proliferation assay); assay type: cell-based; details: unfiltered extract, 50 to 50,000 μg/ml, 24 hours incubation
Description: Stock solutions of mangiferin were made by dissolving mangiferin extract in water, and diluting to the required concentration. The stock solutions were then added to HDFn cells at a range of concentrations from 50 μg/ml to 50,000 μg/ml, and incubated for 24 hours under standard culture conditions.

[3] = UV absorbance scan; assay type: physicochemical; details: 1,000 μg/ml, quartz cell
Description: A UV absorbance scan was performed on mangiferin extract at a concentration of 1,000 μg/ml, and the results are shown in FIG. 6. The spectrometer was set up using a quartz cell with a 1.05 ms integration time (the minimum for the spectrometer) and the spectra was based on an average of 100 samples.
UV absorbance scans were performed on stock solutions of the mangiferin-complexes prepared in example 8 above and the results are shown in FIG. 7. The spectrometer was set up using a quartz cell with a 1.05 ms integration time (the minimum for the spectrometer) and the spectra was based on an average of 100 samples. The mangiferin-only solution required to be diluted to 25% of its original concentration to reach the point at which it no longer saturated the spectrometer, while mangiferin-complex solutions were diluted to 2.5%. However, good absorbance was then observed for all of the samples, with the characteristic peaks at ^˜320 nm and ^˜370 nm clearly visible.

[4] = Solubility of mangiferin in deionised water; assay type: physicochemical
Description: In order to assess the solubility of mangiferin in aqueous solution, 0.18 g of mangiferin was added to 100 mls of deionised water. […] The solution was then Buchner filtered, and the mass of the undissolved material weighed. Solubility was calculated based on the difference between the initial mass of mangiferin and that of the undissolved material.

O=c1c2cc(O)c(O)cc2oc2cc(O)c(C3OC(CO)C(O)C(O)C3O)c(O)c12 (stereo not shown) [mangiferin, 1,3,6,7-tetrahydroxy-2-[3,4,5-trihydroxy-6-(hydroxymethyl)oxan-2-yl]xanthen-9-one]
increase in mtDNA damage compared with foil-wrapped (non-irradiated) samples ([1]; 1,000 μg/ml solution in quartz dish above cells, water control 3.1 Cts): 1.6 Cts
fold increase in mtDNA damage compared with foil-wrapped samples ([1]; 1,000 μg/ml, 1 Ct = 2-fold, water control approximately 8-fold): approximately 3 fold
concentration up to which cell viability is seen (cell death above) [2]: ~5,000 μg/ml
UV absorbance peaks [3]: ~320 nm and ~370 nm
solubility in water (in words) ([4]; even after stirring for 24 hours): very insoluble in water
solubility at 4 h ([4]; thermodynamic from solid, deionised water, 40° C., 500 rpm, stirring time 4 hours): 43 µg/mL (≈ 102 µM)
solubility at 24 h ([4]; thermodynamic from solid, deionised water, 40° C., 500 rpm, stirring time 24 hours): 139 µg/mL (≈ 329 µM)
